Measurements taken from US6525001B1, “Substituted pyrimidine and pyridine herbicides” (Mid-American Commercialization Corporation, priority 1997, dated 2003).

Columns and labels:
Format in all cases: in vivo
[1] = test system: dallisgrass (Paspalum dilatatum); experiment: Test E pre-/postemergence/post directed; set-up: key: 0 is no effect; 100 is complete control
Source text: (§1) Seeds, tubers, or plant parts of alexandergrass (Brachiaria plantaginea), annual bluegrass (Poa annua), arrowleaf sida (Sida rhombifolia), barnyardgrass (Echinochloa crus-galli), bermudagrass (Cynodon dactylon), citrus (Citrus sinensis), common chickweed (Stellaria media), common purslane (Portulaca oleracea), common ragweed (Ambrosia elatior), common groundsel (Senecio vulgaris), dallisgrass (Paspalum dilatatum), goosegrass (Eleusine indica), green foxtail (Setaria viridis), guineagrass (Panicum maximum), itchgrass (Rottboellia exaltata), johnson grass (Sorghum halepense), kochia (Kochia scoparia), large crabgrass (Digitaria sanguinalis), leafy spurge (Euphorbia esula), pitted morningglory (Ipomoea lacunosa), purple nutsedge (Cyperus rotundus), quackgrass (Agropyron repens), Russian thistle (Salsola kali), sandbur (Cenchrus echinatus), sourgrass (Trichachne insularis), Spanishneedles (Bidens bipinnata), sugarcane (Saccharum officinarum), surinam grass (Brachiaria decumbens) and tall mallow (Malva sylvestris) were planted into greenhouse pots of flats containing greenhouse planting medium. Plant species were grown grown in separate pots or individual compartments. Preemergence applications were made within one day of planting the seed or plant part. Postemergence applications were applied when the plants were in the two to four leaf stage (three to twenty cm).
(§2) Test chemicals were formulated in a non-phytotoxic solvent mixture which included a surfactant and applied preemergence to the soil surface, postemergence to the plants or as a post directed spray to plants and soil at the base of the target species. Untreated control plants and treated plants were placed in the greenhouse and visually evaluated for injury 13 to 21 days after herbicide application. Plant response ratings, summarized in Table E, are based on a 0 to 100 scale where 0 is no injury and 100 is complete control. A dash (−) response means no test result.

[2] = test system: tall mallow (Malva sylvestris); experiment: Test E pre-/postemergence/post directed; set-up: key: 0 is no effect; 100 is complete control; conditions: PREEMERGENCE
Source text: as §1, §2

[3] = test system: common purslane (Portulaca oleracea); experiment: Test E pre-/postemergence/post directed; set-up: key: 0 is no effect; 100 is complete control
Source text: as §1, §2

[4] = test system: common groundsel (Senecio vulgaris); experiment: Test E pre-/postemergence/post directed; set-up: key: 0 is no effect; 100 is complete control
Source text: as §1, §2

[5] = test system: goosegrass (Eleusine indica); experiment: Test E pre-/postemergence/post directed; set-up: key: 0 is no effect; 100 is complete control
Source text: as §1, §2

[6] = test system: large crabgrass (Digitaria sanguinalis); experiment: Test E pre-/postemergence/post directed; set-up: key: 0 is no effect; 100 is complete control; conditions: PREEMERGENCE
Source text: as §1, §2

[7] = test system: sourgrass (Trichachne insularis); experiment: Test E pre-/postemergence/post directed; set-up: key: 0 is no effect; 100 is complete control
Source text: as §1, §2

[8] = test system: guineagrass (Panicum maximum); experiment: Test E pre-/postemergence/post directed; set-up: key: 0 is no effect; 100 is complete control
Source text: as §1, §2

[9] = test system: bermudagrass (Cynodon dactylon); experiment: Test E pre-/postemergence/post directed; set-up: key: 0 is no effect; 100 is complete control; conditions: PREEMERGENCE
Source text: as §1, §2

[10] = test system: common ragweed (Ambrosia elatior); experiment: Test E pre-/postemergence/post directed; set-up: key: 0 is no effect; 100 is complete control; conditions: PREEMERGENCE
Source text: as §1, §2

[11] = test system: ladysthumb smartweed (Polygonum persicaria); experiment: Test C; conditions: PREEMERGENCE
[12] = test system: surinam grass (Brachiaria decumbens); experiment: Test E pre-/postemergence/post directed; set-up: key: 0 is no effect; 100 is complete control; conditions: PREEMERGENCE, Rate 250 g/ha
Source text: as §1, §2

| SMILES | Plant response rating, Dallisgrass ([1]; PREEMERGENCE, Rate 32 g/ha) | Plant response rating, Dallisgrass ([1]; PREEMERGENCE, Rate 64 g/ha) | Plant response rating, Dallisgrass ([1]; PREEMERGENCE, Rate 125 g/ha) | Plant response rating, Dallisgrass ([1]; PREEMERGENCE, Rate 250 g/ha) | Plant response rating, Tall Mallow ([2]; Rate 32 g/ha) | Plant response rating, Tall Mallow ([2]; Rate 64 g/ha) | Plant response rating, Tall Mallow ([2]; Rate 125 g/ha) | Plant response rating, Tall Mallow ([2]; Rate 250 g/ha) | Plant response rating, Com. purslane ([3]; PREEMERGENCE, Rate 32 g/ha) | Plant response rating, Com. purslane ([3]; PREEMERGENCE, Rate 64 g/ha) | Plant response rating, Com. purslane ([3]; PREEMERGENCE, Rate 125 g/ha) | Plant response rating, Goosegrass ([5]; PREEMERGENCE, Rate 32 g/ha) | Plant response rating, Goosegrass ([5]; PREEMERGENCE, Rate 64 g/ha) | Plant response rating, Goosegrass ([5]; PREEMERGENCE, Rate 125 g/ha) | Plant response rating, Sourgrass ([7]; PREEMERGENCE, Rate 32 g/ha) | Plant response rating, Sourgrass ([7]; PREEMERGENCE, Rate 64 g/ha) | Plant response rating, Sourgrass ([7]; PREEMERGENCE, Rate 125 g/ha) | Plant response rating, Guineagrass ([8]; PREEMERGENCE, Rate 32 g/ha) | Plant response rating, Guineagrass ([8]; PREEMERGENCE, Rate 64 g/ha) | Plant response rating, Guineagrass ([8]; PREEMERGENCE, Rate 125 g/ha) | further results |
| --- | --- | --- | --- | --- | --- | --- | --- | --- | --- | --- | --- | --- | --- | --- | --- | --- | --- | --- | --- | --- | --- |
| CCc1cnc(-n2ccc(C(F)(F)F)n2)nc1Cc1cccc(C(F)(F)F)c1 [Compound 46] | 65 | 98 | 100 | 100 | 100 | 100 | 100 | 100 | 100 | 100 | 100 | 85 | 90 | 98 | 98 | 100 | 100 | 60 | 85 | 100 | Plant response rating, Com. purslane ([3]; PREEMERGENCE, Rate 250 g/ha): 100; Plant response rating, Com. groundsel ([4]; PREEMERGENCE, Rate 32 g/ha): 100; Plant response rating, Com. groundsel ([4]; PREEMERGENCE, Rate 64 g/ha): 100; Plant response rating, Com. groundsel ([4]; PREEMERGENCE, Rate 125 g/ha): 100; Plant response rating, Com. groundsel ([4]; PREEMERGENCE, Rate 250 g/ha): 100; Plant response rating, Goosegrass ([5]; PREEMERGENCE, Rate 250 g/ha): 100; Plant response rating, Large crabgrass ([6]; Rate 125 g/ha): 100; Plant response rating, Large crabgrass ([6]; Rate 250 g/ha): 100; Plant response rating, Sourgrass ([7]; PREEMERGENCE, Rate 250 g/ha): 100; Plant response rating, Guineagrass ([8]; PREEMERGENCE, Rate 250 g/ha): 98; Plant response rating, Bermudagrass ([9]; Rate 125 g/ha): 100; Plant response rating, Bermudagrass ([9]; Rate 250 g/ha): 100; Plant response rating, Com. ragweed ([10]; Rate 250 g/ha): 100; Plant response rating, Ladysthumb ([11]; Rate 35 g/ha): 25; Plant response rating, Ladysthumb ([11]; Rate 70 g/ha): 10; Plant response rating, Ladysthumb ([11]; Rate 140 g/ha): 50 |
| Cc1cnc(-n2ccc(C(F)(F)F)n2)nc1Cn1ccc(C(F)(F)F)n1 [Compound 52] | 35 | 80 | 90 | – | 60 | 98 | 100 | – | 100 | 100 | 100 | 20 | 100 | 100 | 95 | 100 | 100 | 60 | 80 | 100 | Plant response rating, Dallisgrass ([1]; POSTEMERGENCE, Rate 125 g/ha): 5; Plant response rating, Dallisgrass ([1]; POSTEMERGENCE, Rate 250 g/ha): 75; Plant response rating, Com. purslane ([3]; POSTEMERGENCE, Rate 125 g/ha): 50; Plant response rating, Com. purslane ([3]; POSTEMERGENCE, Rate 250 g/ha): 75; Plant response rating, Com. groundsel ([4]; POSTEMERGENCE, Rate 125 g/ha): 100; Plant response rating, Com. groundsel ([4]; POSTEMERGENCE, Rate 250 g/ha): 100; Plant response rating, Com. groundsel ([4]; PREEMERGENCE, Rate 125 g/ha): 100; Plant response rating, Goosegrass ([5]; POSTEMERGENCE, Rate 125 g/ha): 5; Plant response rating, Goosegrass ([5]; POSTEMERGENCE, Rate 250 g/ha): 75; Plant response rating, Large crabgrass ([6]; Rate 64 g/ha): 100; Plant response rating, Large crabgrass ([6]; Rate 125 g/ha): 100; Plant response rating, Sourgrass ([7]; POSTEMERGENCE, Rate 125 g/ha): 10; Plant response rating, Sourgrass ([7]; POSTEMERGENCE, Rate 250 g/ha): 50; Plant response rating, Guineagrass ([8]; POSTEMERGENCE, Rate 125 g/ha): 80; Plant response rating, Guineagrass ([8]; POSTEMERGENCE, Rate 250 g/ha): 85; Plant response rating, Bermudagrass ([9]; Rate 125 g/ha): 100; Plant response rating, Com. ragweed ([10]; Rate 125 g/ha): 100 |
| Cc1cnc(-n2cnc(C(F)(F)F)n2)nc1C(=O)c1cccc(C(F)(F)F)c1 [Compound 67] | 40 | 70 | 80 | 100 | 80 | 90 | 90 | 98 | 80 | 100 | 100 | 80 | 90 | 100 | 98 | 100 | 100 | 80 | 100 | 100 | Plant response rating, Surinam grass [12]: 100; Plant response rating, Com. purslane ([3]; PREEMERGENCE, Rate 250 g/ha): 100; Plant response rating, Com. groundsel ([4]; PREEMERGENCE, Rate 250 g/ha): 100; Plant response rating, Goosegrass ([5]; PREEMERGENCE, Rate 250 g/ha): 100; Plant response rating, Large crabgrass ([6]; Rate 250 g/ha): 100; Plant response rating, Sourgrass ([7]; PREEMERGENCE, Rate 250 g/ha): 100; Plant response rating, Guineagrass ([8]; PREEMERGENCE, Rate 250 g/ha): 100; Plant response rating, Bermudagrass ([9]; Rate 250 g/ha): 100; Plant response rating, Com. ragweed ([10]; Rate 125 g/ha): 100; Plant response rating, Com. ragweed ([10]; Rate 250 g/ha): 100 |
